Results on 1 molecule are retold here after article PMC9007350, “Aurintricarboxylic acid is a canonical disruptor of the TAZ-TEAD transcriptional complex” (PLoS ONE, 2022).

In data set [1] the target is T1, TAZ-TEAD complex (full-length His-TAZ and FLAG-TEAD4) (Homo sapiens, UniProt Q15561).
T1 construct: human TEAD4 (1–434) (UniProt—Q15561); strep (N, cleaved yes); made in house; host or cells: Escherichia coli BL21(DE3)pLysS
Kind of data set: TAZ-TEAD AlphaLISA assay. Format: binding. The note with it: 10 nM TAZ, 15 nM TEAD4. The source says:
The cDNAs of human TEAD4 (1–434) (UniProt—Q15561) and TAZ (UniProt—Q9GZV5) were codon-optimized according to a proprietary algorithm developed by DAPCEL, Inc, synthesized, and inserted into the pET-3a vector between restriction sites NdeI and BamHI (GenScript). The final construct contained a N-terminal strep-TEV-FLAG tag for TEAD4, a 6x His tag at the N-terminus and a strep tag at the C-terminus of TAZ (GenScript).
Full-length TAZ and TEAD proteins were used in this assay. The codon-optimized cDNAs yielded sufficient protein amounts to carry out the high-throughput screen (S1A Fig).
Purified full-length His-TAZ and FLAG-TEAD4 proteins were mixed with nickel chelate AlphaLISA Acceptor Beads and anti-FLAG Alpha Donor Beads (PerkinElmer) in alpha assay buffer (10mM Tris pH 8.0, 150mM NaCl, 0.1% BSA, 0.01% Tween 20, 10 mM DTT). To determine the optimum protein concentration that produced the highest total signal intensity, His-TAZ was used at a concentration range of 0 nM to 20 nM and FLAG-TEAD4 at 0.1 nM to 1000 nM. The maximal signal occurred at 10 nM TAZ and 15 nM TEAD4 (S1B Fig). Then, compounds from the library plates were added at a final concentration of 10 μM. The mixtures were incubated in the dark for 2h at room temperature and emission at 615 nm was measured using the alpha-compatible EnSpire (PerkinElmer) and Synergy Neo2 (BioTek) multimode plate readers. […]
On the technique in general: Bead proximity is the source of the signal in Alpha formats.

Data set [2] concerns NIH3T3 cells expressing NRAS G12V. The experiment in a line: Soft agar colony growth assay, NRAS G12V. In kind it is cell-based. The protocol:
(§1) Soft agar colony growth assay was performed as previously described. The colonies were counted using Image-Pro Plus 7.0 software (Media Cybernetics). ATA cytotoxicity was assessed using the CyQUANT LDH Cytotoxicity Assay Kit (ThermoFisher) and was performed as per the manufacturer’s protocol.

The test system of data set [3] is HEK293 cells. Kind of data set: LDH cytotoxicity assay, HEK293. Format: cell-based. The note with it: HEK293, concentrations used. The protocol:
as §1
(§2) NIH3T3 and HEK293 cells were treated with the indicated concentrations of ATA and the cytotoxicity was evaluated by calculating the amount of intracellular LDH released into the media. LDH absorbance after complete cell lysis is considered as 100% cytotoxicity and the absorbance after ATA treatment was normalized accordingly. (TIF) Click here for additional data file.

In data set [4] the test system is NIH3T3 expressing TAZ S89A. The experiment in a line: Soft agar colony growth assay, TAZ S89A. In kind it is cell-based. The protocol: as §1
Data set [5] has as its target T2, YAP-TEAD complex (human YAP (61-100) probe, human TEAD4 (217-434)) (Homo sapiens, UniProt Q15561).
T2 construct: made in house
Kind of data set: YAP-TEAD fluorescence polarization assay. Format: binding. The note with it: TEAD4 350 nM, YAP probe 25 nM; read-out: IC50, YAP-TEAD FP assay. The protocol:
Human YAP (61–100), human TAZ (23–57) and mouse Vgll1 (26–51) peptide probes were used; all the probes had carboxyfluorescein labels. Human TEAD4 (217–434) was used in the assay at a concentration of 350 nM and the peptide probe concentration was 25 nM. Disruptors were titrated at concentrations ranging from 0–150 μM to the probe-TEAD complex, and the mixtures were incubated at 25°C for 20 min. Then, polarization measurements were taken using a Victor3 (PerkinElmer) plate reader.
A general note: Fluorescence polarisation rises when a labelled molecule tumbles more slowly, as on binding a larger partner.

Data set [6] deals with NIH3T3 cells expressing TAZ-CAMTA1. The experiment in a line: Soft agar colony growth assay, TAZ-CAMTA1. In kind it is cell-based. The protocol: as §1
Data set [7] relates to NIH3T3 cells. The experiment in a line: LDH cytotoxicity assay, NIH3T3. In kind it is cell-based. The conditions noted are these: NIH3T3, concentrations used in soft agar assay. The protocol: as §1, §2

T2 sequence (Q15561 217-434, one chain of several): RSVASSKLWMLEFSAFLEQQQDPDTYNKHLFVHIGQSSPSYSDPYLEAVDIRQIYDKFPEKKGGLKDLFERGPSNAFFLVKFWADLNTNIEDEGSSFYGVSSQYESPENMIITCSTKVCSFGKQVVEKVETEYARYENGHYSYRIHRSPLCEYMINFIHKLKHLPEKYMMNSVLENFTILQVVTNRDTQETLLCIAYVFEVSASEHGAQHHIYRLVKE
T1 sequence (Q15561 whole entry, one chain of several): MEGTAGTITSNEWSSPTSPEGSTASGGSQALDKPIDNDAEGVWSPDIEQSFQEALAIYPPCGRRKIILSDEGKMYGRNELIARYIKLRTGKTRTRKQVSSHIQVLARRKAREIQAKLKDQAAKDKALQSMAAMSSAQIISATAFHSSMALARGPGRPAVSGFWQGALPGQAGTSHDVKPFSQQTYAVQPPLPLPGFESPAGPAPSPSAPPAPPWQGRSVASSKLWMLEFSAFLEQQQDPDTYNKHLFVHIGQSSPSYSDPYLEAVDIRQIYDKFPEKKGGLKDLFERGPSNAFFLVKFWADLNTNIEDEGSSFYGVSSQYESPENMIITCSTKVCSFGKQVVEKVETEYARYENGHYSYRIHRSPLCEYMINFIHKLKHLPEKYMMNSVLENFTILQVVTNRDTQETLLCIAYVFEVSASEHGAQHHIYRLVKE

With `O=C(O)C1=CC(=C(c2ccc(O)c(C(=O)O)c2)c2ccc(O)c(C(=O)O)c2)C=CC1=O` [ATA, aurintricarboxylic acid], the IC50 stood at 0.035 µM in data set [1] and 160 µM in data set [5]. The “NRAS G12V-induced soft agar growth” value in data set [2] is reported as “unaffected”. Also, the “cytotoxicity, LDH release” value in data set [3] and in data set [7] was “did not show cytotoxicity” in each case. In data set [4], the “soft agar growth driven by TAZ S89A” value was “inhibited soft agar growth”. Also, in data set [6], the “TC-driven soft agar colony growth” value is listed as “dose-dependent reduction”.

By IC50 is commonly meant the point on the concentration scale where inhibition reaches its midpoint.
